Source: paper PMC5648829 (Scientific Reports, 2017)
Blank lines part the entries; values can stand above or below the molecule they belong to. Where a SMILES comes first, the peptide text is derived from it.

Columns and labels:
sputum neutrophils = system: sputum neutrophils; design: method as in PMID 27806191; settings: cystic fibrosis patients; cited from earlier work
[1] = PGP degradation assay in BALF ex-vivo (LC-MS/MS); type: in vitro ADME, mouse
Method: 200 µl of BALF were spiked with PGP and Ac-PGP at the final concentration of 10 nM. […] After incubation, samples were filtered (Amicon Ultra-0.5, Membrane Ultracel-30, PMNL 30 kD) by centrifugation (3 min at 10,000 × g). Filtered samples were transferred to vials for liquid chromatography tandem mass spectrometry (LC-MS/MS) analysis. The LC system consisted of an Acquity UPLC I-Class interfaced with a Xevo-TQS triple quadruple MS (Waters). […] PGP was monitored with MRM m/z transitions of 270.1 > 173.1 (quantifier) and 270.1 > 70.1 and 270.1 > 116.1 (qualifiers). Ac-PGP was monitored with m/z transitions of 312.2 > 112.1 (quantifier) and 312.2 > 116.1 and 312.2 > 140.1 (qualifiers).

[2] = system: neutrophil influx into dorsal air-pouch; experiment: Air-pouch model of acute inflammation; type: in vivo, mouse; settings: for PGP concentration in air-pouch exudate: PGP 500 μg/mouse
Method: Air-pouches were formed by subcutaneous injection of 5 ml air through a 0.22 μm filter on the backs of female LTA4H KO or wt mice. The patency of the cavity was maintained by a further 3 ml injection on day 3. Six days after the initial injection of air, LPS at 10 µg/animal and PGP, Ac-PGP, at different concentrations up to 500 µg/animal were injected into the air pouches. […] An incision was made on the top of the pouch and the injected lavage fluid pipetted out into an eppendorf tube. An aliquot of air pouch lavage fluid was used to determine total cell counts on an Advia 120® Haematology Analyser. To determine differential cell counts, cytospins were prepared for all pouch fluid samples. The cytospins were air dried prior to staining with DiffQwik differential staining solutions. Differential cell counts were performed manually (x200 magnification) to determine the percentage of neutrophil and non-neutrophil cell populations in each sample.

[3] = system: neutrophil influx into lungs; experiment: Stimulation of lungs with PGP and Ac-PGP (intra-tracheal); type: in vivo, mouse; settings: PGP up to 500 μg intra-tracheal, wt or LTA4H KO mice, 24 h
Method: PGP or Ac-PGP in increasing doses up to 500 ug per mouse were applied by intra-tracheal administration in 50 µl PBS to female LTA4H KO or wild type mice. After 24 h, the mice were euthanized and BALF was collected by cannulating the trachea with a catheter and lavaging the lungs 3 times with 0.4 ml cold PBS. The lavage fluid was then centrifuged and the cells analyzed by flow cytometry. Cell supernatants were used for analysis of MPO and cytokine content in BALF.

human neutrophils [4] = experiment: Human neutrophil shape change assay; type: cell-based; settings: up to 100 μM
Method: Neutrophils were purified by Ficoll density gradient centrifugation from human blood and incubated with graded concentrations of PGP, Ac-PGP or the known neutrophil chemoattractant GROα in assay buffer containing BSA (0.1%) in PBS for 10 min at 37 °C, 5% CO2 and 90% humidity. Cells were then fixed and shape change analyzed by flow cytometry.

human neutrophils [5] = experiment: Human neutrophil chemotaxis assay; type: cell-based; settings: graded concentrations up to mM range, 90 min at 37 °C
Method: Purified human neutrophils were labeled with calcein-AM (Fluka, Buchs, Switzerland). Test compounds (PGP, Ac-PGP, RTR, and Ac-RTR) or IL-8 (Sigma) as positive chemoattractant control were diluted in RPMI containing BSA (0.1%) and added at graded concentrations into the wells of a 96-well ChemoTX plate (3.2 mm diameter, 5 µm pore size; NeuroProbe, Gaithersburg, MD). Labeled cells (50,000 per well) were added onto the filters above the wells that received the test compounds. Plates were incubated for 90 min at 37 °C. The filters were removed and fluorescence in the receiving wells was measured using a SpectraMAX Gemini EM instrument (Molecular Devices, Sunnyvale, CA; λex = 485 nm; λem = 538 nm). The chemotactic index was measured as the ratio of fluorescence in the test wells and in control (buffer only) wells.

human neutrophils [6] = experiment: Human neutrophil calcium flux assay; type: cell-based; settings: up to mM concentrations
Method: Purified human neutrophils were incubated in Calcium 5 loading buffer (Molecular Devices) containing Probenecid (2.5 mM, SIGMA) at 37 °C, 5% CO2 and 90% humidity for 1 h. 20 µl of the cell suspension were then transferred to a black 384-well plate with clear bottom and centrifuged at 100 g for 4 min. Test compounds PGP, Ac-PGP and fMLP (SIGMA) were prepared at graded concentrations in HBSS containing HEPES (20 mM). Fluorescence was measured in FLIPR Tetra reader (Molecular Devices) every second before and after the addition of 5 µl of compounds dilutions. The calculated F index is the difference between the maximum signal and the average baseline signal, divided by the average baseline signal.

human neutrophils [7] = experiment: ROS generation in human neutrophils; type: cell-based; settings: up to mM concentrations
Method: Purified human neutrophils were plated in RPMI + FCS (5%) in 96-well cell culture plates (100,000 cells/well). Dihydrorhodamine 123 (SIGMA) was added at a final concentration of 3 µM together with PGP, Ac-PGP and fMLP (SIGMA) at graded concentrations and incubated for 30 min at 37 °C, 5% CO2 and 90% humidity. […] Amount of generated ROS is given as GMFI (sample)/GMFI (unstimulated control).

human neutrophils [8] = system: human neutrophils; design: method as in earlier work; settings: ref 27 Haddox et al.; read-out: EC50 chemotaxis of human neutrophils; cited from earlier work
LTA4H = target: T1, LTA4H (Homo sapiens, UniProt P09960); experiment: PGP degradation assay in human blood; type: cell-based; design: Fresh blood was collected in heparinized tubes by venipuncture from volunteers; from tissue; host or cells: fresh human whole blood from volunteers, diluted 1:3 in RPMI; settings: untreated and LPS stimulated blood, 24 h at 37 °C
T1 sequence (P09960 1-611): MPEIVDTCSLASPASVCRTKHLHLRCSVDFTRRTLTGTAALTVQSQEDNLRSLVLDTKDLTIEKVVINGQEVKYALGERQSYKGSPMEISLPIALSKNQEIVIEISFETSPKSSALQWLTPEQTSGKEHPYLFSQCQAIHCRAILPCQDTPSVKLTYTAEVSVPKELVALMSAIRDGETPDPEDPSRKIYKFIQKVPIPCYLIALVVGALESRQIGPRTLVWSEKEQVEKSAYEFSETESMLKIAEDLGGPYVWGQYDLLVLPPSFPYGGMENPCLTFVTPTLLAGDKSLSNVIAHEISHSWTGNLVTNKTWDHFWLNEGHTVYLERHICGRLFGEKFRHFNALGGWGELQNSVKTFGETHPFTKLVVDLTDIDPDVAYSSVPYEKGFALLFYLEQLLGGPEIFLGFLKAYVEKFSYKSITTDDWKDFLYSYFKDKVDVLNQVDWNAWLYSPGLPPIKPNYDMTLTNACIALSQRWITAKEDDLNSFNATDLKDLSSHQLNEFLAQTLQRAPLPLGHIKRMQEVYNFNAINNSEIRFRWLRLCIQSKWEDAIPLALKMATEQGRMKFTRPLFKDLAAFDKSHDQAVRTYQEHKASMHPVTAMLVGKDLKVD
Method: Fresh blood was collected in heparinized tubes by venipuncture from volunteers from the Novartis Blood Donor Center, Basel. The blood was diluted 1:3 in Roswell Park Memorial Institute (RPMI) containing HEPES (0.025 M). […] PGP and LPS were added at final concentrations of 2 µg/ml each and incubated up to 24 h at 37 °C, 5% CO2 and 90% humidity before samples were collected for LC-MS/MS analysis.

[9] = system: asthma bronchial allergen challenge; design: method as in PMID 25018015; settings: asthma bronchial allergen challenge trial; cited from earlier work

SMILES: O=C(O)c1ccc(CN2C[C@@H]3C[C@H]2CN3Cc2ccc(Oc3ccc(-c4ncco4)cc3)cc2)cc1 [Acebilustat]
- reduction of sputum neutrophils (sputum neutrophils): 65%

- PGP level after spiking into BALF ([1]; BALF from LPS challenged wt mice, PGP 10 nM, 4 h at 37 °C): undetectable levels
- PGP still present ([1]; exudate (BALF) of LTA4H KO mice, after 24 h): over 80%
- PGP concentration in air-pouch exudate ([2]; LTA4H KO mice, 1 h after injection): approximately 1 µg/ml
- PGP concentration in air-pouch exudate ([2]; LTA4H KO mice, 4 h and 24 h after injection): no PGP was detectable
- Degradation of PGP in human blood (LTA4H): complete disappearance
SMILES: O=C(NCC(=O)N1CCC[C@H]1C(=O)O)[C@@H]1CCCN1 [PGP, H-Pro-Gly-Pro] (H-Pro-Gly-Pro-OH)
- cell influx in air-pouch ([2]; 500 μg PGP, LTA4H KO mice, 24 h): failed to detect significant cell influx
- cell numbers (neutrophil influx) in air-pouch ([2]; PGP up to 500 μg per air-pouch, Balb/c mice, 4 h): did not show elevated cell numbers compared to saline control
- neutrophil influx in air-pouch ([2]; mice pre-treated with 30 mg/kg DG-051 before PGP injection, 4 h): unable to detect neutrophil influx
- influx of neutrophils by flow cytometry of BALF cells [3]: neither able to detect influx of neutrophils
- myeloperoxidase (MPO) in BALF ([3]; versus PBS control): nor elevation of myeloperoxidase (MPO) beyond the PBS control
- neutrophil shape change response (human neutrophils [4]): no response
- neutrophil chemotaxis (human neutrophils [5]): no significant increase in chemotaxis
- induction of Ca2+ flux (human neutrophils [6]): neither PGP nor Ac-PGP induced
- ROS production (human neutrophils [7]): neither PGP nor Ac-PGP induced
- EC50 (human neutrophils [8]): 15 mM

SMILES: CC(=O)NC1C[C@H]2CC[C@@H](C1)N2Cc1ccc(Oc2nc3ncccc3s2)cc1 (some centres unmarked) [JNJ-40929837]
- clinical efficacy [9]: did not show efficacy
